Results from patent publication US12642271B2, “Active compound combinations comprising a (thio)carboxamide derivative and a fungicidal compound” (Bayer CropScience Aktiengesellschaft, priority 2011, dated 2026).
“And” between values parts separate entries of the source, which are not always exact repeats. Equal entries are not always repeated. Where two headings read alike, the source gives them in different places.

How the values were obtained:
[1] = test system: Blumeria graminis f.sp. hordei; assay: Blumeria test (barley)/preventive; format: in vivo; settings: Blumeria graminis, 168 h, read-out: Efficacy in % found; for pest or weed control at 10 ppm: 10 ppm a.i.
[2] = test system: Fusarium nivale (var. majus); assay: Fusarium nivale (var. majus)-test (wheat)/preventive; settings: Microdochium nivale, in Triticum aestivum, 120 h; for pest or weed control at 10 ppm: 10 ppm a.i.; for pest or weed control at 40 ppm: 40 ppm a.i.
Experimental: After the spray coating has been dried, the plants are slightly injured by using a sandblast and afterwards they are sprayed with a conidia suspension of Fusarium nivale (var. majus).
The plants are placed in the greenhouse under a translucent incubation cabinet at a temperature of approximately 10° C. and a relative atmospheric humidity of approximately 100%.
The test is evaluated 5 days after the inoculation.

[3] = test system: Sphaerotheca fuliginea; assay: Sphaerotheca test (cucumbers)/preventive; format: in vivo; settings: Podosphaera fuliginea, 168 h, read-out: Efficacy in % found; for pest or weed control at 0.25 ppm: 0.25 ppm a.i.; for pest or weed control at 0.5 ppm: 0.5 ppm a.i.
[4] = test system: Venturia inaequalis; assay: Venturia test (apples)/preventive; settings: for pest or weed control at 0.5 ppm: 0.5 ppm a.i.
Experimental: After the spray coating has dried on, the plants are inoculated with an aqueous conidia suspension of the causal agent of apple scab (Venturia inaequalis) and then remain for 1 day in an incubation cabinet at approximately 20° C. and a relative atmospheric humidity of 100%.
The plants are then placed in a greenhouse at approximately 21° C. and a relative atmospheric humidity of approximately 90%.
The test is evaluated 10 days after the inoculation.

[5] = test system: Alternaria solani; assay: Alternaria test (tomatoes)/preventive; format: in vivo; settings: Alternaria solani, 72 h, read-out: Efficacy in % found
[6] = test system: Botrytis cinerea; assay: Botrytis test (beans)/preventive
Experimental: After the spray coating has dried on, 2 small pieces of agar covered with growth of Botrytis cinerea are placed on each leaf. The inoculated plants are placed in a darkened chamber at 20° C. and a relative atmospheric humidity of 100%. 2 days after the inoculation, the size of the lesions on the leaves is evaluated.

[7] = test system: Puccinia triticina; assay: Puccinia triticina-test (wheat)/preventive; format: in vivo; settings: preventive, evaluated 8 days after inoculation; for pest or weed control at 10 ppm / pest or weed control at 40 ppm: Puccinia triticina, 192 h, read-out: Efficacy in % found; for pest or weed control at 40 ppm: application rate 40 ppm a.i.
[8] = test system: Septoria tritici; assay: Septoria tritici-test (wheat)/preventive; format: in vivo; settings: Zymoseptoria tritici, 504 h, preventive, evaluated 21 days after inoculation, read-out: Efficacy in % found; for pest or weed control at 10 ppm: application rate 10 ppm a.i.
[9] = test system: Pyrenophora teres; assay: Pyrenophora teres-test (barley)/preventive; format: in vivo; settings: application rate 10 ppm a.i., preventive, evaluated 8 days after inoculation
[10] = test system: Fusarium graminearum; format: in vivo
[11] = test system: Phytophthora infestans; assay: whole plant or invertebrate; format: in vivo; settings: Phytophthora infestans, 72 h, read-out: Efficacy in % found
[12] = test system: Leptosphaeria nodorum; assay: Leptosphaeria nodorum test (wheat)/preventive; format: in vivo; settings: for pest or weed control at 10 ppm / pest or weed control at 40 ppm: Parastagonospora nodorum, 192 h, read-out: Efficacy in % found; for pest or weed control at 40 ppm: application rate 40 ppm
[13] = Venturia inaequalis, 240 h, read-out: Efficacy in % found, Table 2b, 0.25 ppm a.i.
[14] = application rate 10 ppm, wheat, preventive, evaluated 8 days after inoculation
[15] = wheat, preventive, evaluated 8 days after inoculation
[16] = read-out: Efficacy in % found, Table 8e

SMILES | pest or weed control at 0.25 ppm [4, 13] [%] | pest or weed control at 0.5 ppm ([5]; Table 3b) [%] | pest or weed control at 10 ppm ([7]; application rate 10 ppm a.i.) [%] | pest or weed control at 40 ppm [7] [%] | pest or weed control at 10 ppm [8] [%] | Efficacy in % found [9] | Efficacy in % found ([10]; Table 7b, 10 ppm a.i.) [%] | Efficacy in % found ([10]; Table 7b, 40 ppm a.i.) [%] | pest or weed control at 0.25 ppm [11] [%] | pest or weed control at 0.5 ppm [11] [%] | pest or weed control at 100 ppm [11] [%] | pest or weed control at 10 ppm [12, 14] [%] | pest or weed control at 40 ppm [12, 15] [%] | Efficacy in % found ([10]; Table 7a, 10 ppm a.i.) [%] | further results
Cn1nc(C(F)F)c(C(=O)N(Cc2cc(Cl)ccc2C(F)(F)F)C2CC2)c1F [A15, N-[5-chloro-2-(trifluoromethyl)benzyl]-N-cyclopropyl-3-(difluoromethyl)-5-fluoro-1-methyl-1H-pyrazole-4-carboxamide] | 0 | 63 | 44 | 89 | 57 | 67% | 0 | 0 | 0 | 0 | 25 |  |  |  | pest or weed control at 10 ppm ([1]; Table 6b): 13%; pest or weed control at 40 ppm ([1]; Table 6b, 40 ppm a.i.): 70%; pest or weed control at 40 ppm ([1]; Table 6c, 40 ppm): 75%; pest or weed control at 10 ppm ([2]; read-out: Efficacy in % found, Table 8c): 63%; pest or weed control at 0.25 ppm ([3]; Table 4c): 29%; pest or weed control at 0.5 ppm ([4]; Venturia inaequalis, 240 h, read-out: Efficacy in % found, Table 2a): 0%; pest or weed control at 0.25 ppm ([5]; Table 3b, 0.25 ppm): 59%; Efficacy in % found ([6]; Table 5a, 2.5 ppm a.i.): 8%
CON=C(C(=O)OC)c1ccccc1CON=C(C)c1cccc(C(F)(F)F)c1 [B3.22, trifloxystrobin] |  |  |  |  | 13 |  | 25 |  |  |  |  | 40 | 57 | 0 | pest or weed control at 1 ppm ([3]; Table 4c, 1 ppm a.i.): 21%
CC(C)c1ccc(Cl)cc1CN(C(=O)c1c(C(F)F)nn(C)c1F)C1CC1 [A5, N-(5-chloro-2-isopropylbenzyl)-N-cyclopropyl-3-(difluoromethyl)-5-fluoro-1-methyl-1H-pyrazole-4-carboxamide] |  |  | 44 | 94 |  |  |  |  |  | 0 |  | 20 | 60 |  | pest or weed control at 40 ppm ([1]; Table 6f, 40 ppm a.i.): 25%; pest or weed control at 10 ppm [2, 16]: 0%; pest or weed control at 40 ppm [2, 16]: 0%; pest or weed control at 40 ppm ([2]; read-out: Efficacy in % found, Table 8f): 38%; pest or weed control at 0.5 ppm ([3]; Table 4d): 0%; pest or weed control at 0.5 ppm ([4]; Venturia inaequalis, 240 h, read-out: Efficacy in % found, Table 2e): 15%; pest or weed control at 2 ppm ([4]; Venturia inaequalis, 240 h, read-out: Efficacy in % found, Table 2e, 2 ppm a.i.): 57%; pest or weed control at 0.25 ppm ([4]; Venturia inaequalis, 240 h, read-out: Efficacy in % found, Table 2d, 0.25 ppm a.i.): 0%; pest or weed control at 0.5 ppm ([4]; Venturia inaequalis, 240 h, read-out: Efficacy in % found, Table 2d): 0%; pest or weed control at 0.5 ppm ([5]; Table 3e): 6%; pest or weed control at 0.5 ppm ([5]; Table 3d): 0%; Efficacy in % found ([6]; Table 5b, 0.5 ppm a.i.): 16%; Efficacy in % found ([6]; Table 5b, 2 ppm a.i.): 72%; pest or weed control at 40 ppm ([8]; application rate 40 ppm a.i.): 93%
Cn1nc(C(F)F)c(C(=O)N(Cc2c(Cl)cccc2C(F)(F)F)C2CC2)c1F [A17, N-[2-chloro-6-(trifluoromethyl)benzyl]-N-cyclopropyl-3-(difluoromethyl)-5-fluoro-1-methyl-1H-pyrazole-4-carboxamide] | 8 | 71 |  | 67 |  | 86% and 89% |  |  | 0 | 0 | 30 | 33 | 67 | 50 | pest or weed control at 10 ppm ([1]; Table 6a): 95%; pest or weed control at 10 ppm ([2]; read-out: Efficacy in % found, Table 8d): 43%; pest or weed control at 0.5 ppm ([3]; Table 4a): 74%; pest or weed control at 0.25 ppm ([3]; Table 4b): 71%; pest or weed control at 0.5 ppm ([5]; Table 3c): 32%; pest or weed control at 10 ppm ([12]; Table 9e, 10 ppm a.i.): 29%
CC(C)C1C2CCC1c1c(NC(=O)c3cn(C)nc3C(F)F)cccc12 (stereo not drawn) [B2.11, isopyrazam (syn + anti)] |  |  |  |  |  | 0% |  | 0 |  |  |  |  |  |  | Efficacy in % found ([4]; Table 2d, 0.25 ppm a.i.): 88%; Efficacy in % found ([7]; application rate 10 ppm a.i.): 33%; Efficacy in % found ([12]; Table 9b, 10 ppm a.i.): 0%
